Test results from patent publication US20200347362A1, “COMPOSITION AND METHOD FOR INCREASING PRODUCTION OF BACTERIOPHAGE USING REACTIVE OXYGEN SPECIES” (Hankuk University of Foreign Studies Research & Business …, priority 2017, published 2020).
Read-outs that look alike come from different tables or passages of the source.

Columns and labels:
E. coli [1] = test system: E. coli
Description: In the present disclosure, the term “sublethal concentration” refers to a concentration that affects the growth of the bacteria but is not enough to cause bacterial death. The concentration may vary and be determined depending on the particular ROS, bacteria, and/or culture medium employed. In one embodiment of the present disclosure, the sublethal concentration is defined as a minimum concentration at which the growth rate of bacteria remains constant until 1 hr after the treatment with ROS, which begin to decrease 2 hrs after the treatment with ROS.
H2O2 was used as ROS, which was prepared by 1:2 serial dilution.

[2] = test system: bacteriophage T4 in E. coli K12 (MG1655)
Experimental: E. coli K12 (MG1655) was cultured overnight. The overnight culture was inoculated at 1:100 (vol:vol) ratio to a 10 ml LB broth in a 50 ml tube and incubated for 1 hr to prepare a fresh culture. When the E. coli K12 strain reached an OD600 of 0.3, H2O2 was added at a final concentration of 4.5 mM and incubated further for 1 hr until OD600 of 0.5˜0.7.
Then T4 was added at a multiplicity of infection (MOI) of 0.001 and incubated further for 5 min at 37° C. in a shaking incubator to allow for phage adsorption. Then the culture was centrifuged at 12,000 rmp for 5 min and the supernatant was removed. Ten ml of fresh LB broth was added to the pellet and resuspended. When the resuspension was completed, which was set to 0 min, the resuspend culture was incubated at a 37° Crotary incubator at 0 min, and 500 μl of the culture was taken at 5 minute intervals. Each of the culture was then plated by a double agar overlay and the number of phages were counted.

E. coli [3] = conditions: E. coli cultured in liquid medium with sub-lethal dose of hydrogen peroxide (FIG. 2)
Experimental: Bacteria Imaging. The bacterial morphologies were observed under a laser scanning microscope using ZEN software. (Zeiss LSM 700). For sampling, 5˜10 ul of the bacteria was dropped on a glass slide and covered with a coverslip. After 20 min of drying in a fume hood, the bacteria were observed using a 100× objective lens. When the bacteria were cultured using a glass-bottom 96-well black plate (Ibidi #89626), the bacteria were fixed with cold acetone and blocked with 1% BSA in PBST for 30 min.
(§1) The serially diluted phage solution was plated to a solid medium containing sublethal dose of H2O2 by using a double agar overlay and the number of phages was counted.

[4] = test system: bacteriophage T4 on E. coli; conditions: solid medium, sub-lethal dose of hydrogen peroxide
Experimental: Phage plaque size measurement. Phage plaques were allowed to form on a bacterial lawn and the size measured using a digital caliper.
as §1

[5] = 4.5 mM H2O2, liquid medium, T4 at MOI 0.001 (FIG. 3)

Structure (SMILES): OO [H2O2, hydrogen peroxide]
- sublethal concentration (E. coli [1]; liquid medium (FIG. 1)): 4.5 mM
- sublethal concentration (E. coli [1]; solid medium): 0.2 mM
- delay of the start of the burst compared to the control [2, 5]: 5 min
- increase of the size of the burst compared to the control [2, 5]: 6 times
- phage production ([2]; sublethal dose of H2O2): increase in the phage production was clearly observed
- bacterial morphology (filamentation, bacterial length) (E. coli [3]): bacterial filamentation was clearly observed
- bacterial morphology (filamentation, bacterial length) (E. coli [3]; listed as hydrogen peroxide): Increase in bacterial length due to bacterial filamentation
- increase of plaque size (diameter) compared to the control [4]: at least 5 times
